From PMC3149978 (Clinical cancer research : an official journal of the …, 2011)
Where two headings read alike, the source gives them in different places.

Experiments:
[1] = human, in vivo
[2] = Extended pharmacokinetic sampling after the first dose
[3] = in vivo, po
[4] = test system: monocyte counts; experiment: Absolute monocyte counts, day 1 vs day 28; format: in vivo, human
[5] = test system: endoglin; experiment: Plasma angiogenic biomarker ELISA, baseline vs day 28 of cycle 1; format: in vivo, human; details: baseline to day 28 of cycle 1; 12 patients; p = 0.01
[6] = test system: refractory solid tumors; experiment: Tumor response evaluated by RECIST; format: in vivo, human
[7] = Steady-state trough plasma concentrations in cycle 1
[8] = test system: VEGF; experiment: Plasma angiogenic biomarker ELISA, baseline vs day 28 of cycle 1; format: in vivo, human; details: baseline to day 28 of cycle 1; 12 patients; p = 0.002
[9] = test system: pediatric patients with refractory solid tumors; experiment: Phase I dose escalation and toxicity evaluation; format: in vivo, human
[10] = test system: Circulating endothelial cells (CECs) and endothelial progenitor cells (CEPs); experiment: Circulating endothelial cells and progenitor cells by flow cytometry; format: in vivo, human; details: 11 patients with paired baseline and day 28 samples
[11] = test system: placental growth factor (PlGF); experiment: Plasma angiogenic biomarker ELISA, baseline vs day 28 of cycle 1; format: in vivo, human; details: baseline to day 28 of cycle 1; 12 patients; p = 0.0003
[12] = test system: stromal cell -derived factor-1 (SDF-1); experiment: as above; format: in vivo, human; details: baseline to day 28 of cycle 1; 12 patients
[13] = test system: adult patients; details: cited from earlier work
[14] = clinical; details: human, in vivo, 20 mg/m2
[15] = dose level 15 g/m^2 (so in the source), N = 8
[16] = 17 patients with decreases, day 1 to day 28

**Q.** For `CCNCCNC(=O)c1c(C)[nH]c(/C=C2\C(=O)Nc3ccc(F)cc32)c1C` [SU12662], which “Tmax, Max” value [1] is on record?
**A.** 48.7 h

**Q.** And the “Tmax, Median” value [1]?
**A.** 8.0 h

**Q.** And the “Tmax, Min” value [1]?
**A.** 4.0 h

**Q.** And the Cmax ([1]; 20 mg/m2)?
**A.** 5.3 ng/mL

**Q.** And the Tmax ([1]; 20 mg/m2)?
**A.** 8.0 h

**Q.** What about the “AR (accumulation ratio = Css/C24h)” value ([2]; dose level 20 mg/m^2, N = 1) of the same compound?
**A.** 4.2

**Q.** And the “AR (accumulation ratio = Css/C24h), Max” value [2, 15]?
**A.** 11.1

**Q.** And the “AR (accumulation ratio = Css/C24h), Median” value [2, 15]?
**A.** 6.4

**Q.** What about the “AR (accumulation ratio = Css/C24h), Min” value [2, 15] of the same compound?
**A.** 3.4

**Q.** And the “steady state plasma concentrations reached by” value [3]?
**A.** ≤ 7 days

**Q.** What does the source list for `CCN(CC)CCNC(=O)c1c(C)[nH]c(/C=C2\C(=O)Nc3ccc(F)cc32)c1C` [Sunitinib]?
**A.** decrease in AMC, range [4, 16]: 18 to 1253 µL⁻¹; median decrease in AMC [4, 16]: 117 µL⁻¹; patients with decreases in absolute monocyte count (AMC) ([4]; 18 patients with paired day 1 and day 28 counts): 17; change in plasma endoglin concentration [5]: decreased significantly; objective responses ([6]; 17 patients evaluable for response): No objective responses were observed; patients with best response of stable disease ([6]; diffuse pontine glioma (2 cycles), osteosarcoma (4 cycles), epithelioid sarcoma (9 cycles), ganglioglioma (9 cycles)): Four patients; 123I-meta-iodobenzylguanidine scan finding ([6]; one patient with neuroblastoma, one cycle at 20 mg/m^2, persistent bone marrow disease): resolution of the disease noted at baseline; Css, Max ([7]; 15 mg/m^2 dose level): 57.9 ng/mL; Css, Median ([7]; 15 mg/m^2 dose level): 28.0 ng/mL; Css, Min ([7]; 15 mg/m^2 dose level): 13.2 ng/mL; Css, Max ([7]; 20 mg/m^2 dose level): 65.0 ng/mL; Css, Median ([7]; 20 mg/m^2 dose level): 36.5 ng/mL; Css, Min ([7]; 20 mg/m^2 dose level): 28.2 ng/mL; Day 21 Css sunitinib ([7]; Patient 1 with cardiac toxicity, 20 mg/m^2): 40 ng/mL; Day 21 Css sunitinib ([7]; Patient 2 with cardiac toxicity, 15 mg/m^2): 18 ng/mL; steady state plasma concentrations reached by ([7]; once daily oral dosing, cycle 1): ≤ 7 days; AUC0-48h [1]: 0.698 ng·h/mL; AUC0-48h, Median [1]: 0.492 ng·h/mL; AUC0-∞ [1]: 0.879 ng·h/mL; AUC0-∞, Median [1]: 0.747 ng·h/mL; Tmax, Max [1]: 48.0 h; Tmax, Min [1]: 2.0 h; median peak plasma concentration [1]: 16.8 ng/mL; peak plasma concentration, range [1]: 9.5 to 61.4 ng/mL; time at which median peak plasma concentration was achieved [1]: 7 h; change in plasma VEGF concentration [8]: increased significantly; cardiac toxicity ([9]; Patient 2, 15 mg/m^2, Day 28, Cycle 1, doxorubicin 367 mg/m^2, prior cardiac radiation): Symptomatic diastolic and systolic dysfunction; transient ischemic changes on EKG; maximum tolerated dose ([9]; children without prior anthracycline exposure or radiation therapy involving a cardiac field): 15 mg/m^2; ALT elevation G1 ([9]; human, in vivo): 11%; Hypophosphatemia G1 ([9]; human, in vivo): 11%; Leukopenia G1 ([9]; human, in vivo): 40%; Thrombocytopenia G1 ([9]; human, in vivo): 40%; ALT elevation G1 ([9]; human, in vivo, 1 cycle): 17%; AST elevation G1 ([9]; human, in vivo, 1 cycle): 33%; Anemia G1 ([9]; human, in vivo, 1 cycle): 25%; Anorexia G2 ([9]; human, in vivo, 1 cycle): 17%; Diarrhea G1 ([9]; human, in vivo, 1 cycle): 33%; Hypoalbuminemia G1 ([9]; human, in vivo, 1 cycle): 25%; Hypocalcemia G1 ([9]; human, in vivo, 1 cycle): 25%; patients who developed hypothyroidism (≤ grade 2) ([9]; human, in vivo, 1 cycle): Three of 23; ALT elevation G2 ([9]; human, in vivo, 42 days): 11%; Anorexia G1 ([9]; human, in vivo, 42 days): 11%; CNS hemorrhage G4 ([9]; human, in vivo, 42 days): 11%; Constipation G1 ([9]; human, in vivo, 42 days): 11%; Cranial neuropathy G4 ([9]; human, in vivo, 42 days): 11%; Decreased serum bicarbonate G1 ([9]; human, in vivo, 42 days): 11%; Dehydration G1 ([9]; human, in vivo, 42 days): 11%; Diarrhea G1 ([9]; human, in vivo, 42 days): 11%; Diarrhea G2 ([9]; human, in vivo, 42 days): 11%; Epistaxis G1 ([9]; human, in vivo, 42 days): 11%; Eye swelling G1 ([9]; human, in vivo, 42 days): 11%; Headache G1 ([9]; human, in vivo, 42 days): 11%; Hypernatremia G1 ([9]; human, in vivo, 42 days): 11%; Hypertension G1 ([9]; human, in vivo, 42 days): 11%; Hyperuricemia G1 ([9]; human, in vivo, 42 days): 11%; Hyperuricemia G4 ([9]; human, in vivo, 42 days): 11%; Hypoalbuminemia G1 ([9]; human, in vivo, 42 days): 11%; Hypomagnesemia G1 ([9]; human, in vivo, 42 days): 11%; Hypothyroidism G1 ([9]; human, in vivo, 42 days): 11%; Left ventricular systolic dysfunction G2 ([9]; human, in vivo, 42 days): 17%; Leukopenia G1 ([9]; human, in vivo, 42 days): 33%; Leukopenia G2 ([9]; human, in vivo, 42 days): 17%; Leukopenia G3 ([9]; human, in vivo, 42 days): 25%; Lipase elevation G1 ([9]; human, in vivo, 42 days): 11%; Lymphopenia G1 ([9]; human, in vivo, 42 days): 17%; Lymphopenia G3 ([9]; human, in vivo, 42 days): 17%; Muscle or joint pain G1 ([9]; human, in vivo, 42 days): 11%; Muscle or joint pain G2 ([9]; human, in vivo, 42 days): 11%; Neutropenia G2 ([9]; human, in vivo, 42 days): 17%; Neutropenia G3 ([9]; human, in vivo, 42 days): 33%; Thrombocytopenia G1 ([9]; human, in vivo, 42 days): 42%; Thrombocytopenia G2 ([9]; human, in vivo, 42 days): 25%; Weight loss G2 ([9]; human, in vivo, 42 days): 17%; cardiac dysfunction ([9]; in vivo): No cardiac dysfunction was observed; changes in hair color and texture ([9]; in vivo): not reported; growth plate thickening ([9]; in vivo): did not demonstrate any growth plate thickening; hypertension ([9]; in vivo): rarely reported; patients who developed hypothyroidism (≤ grade 2) ([9]; in vivo): Two patients; maximum tolerated dose ([9]; patients without prior anthracycline or cardiac radiation exposure, once daily for 28 days followed by a 14-day break): 15 mg/m^2/day; change in totals and subsets of CECs and CEPs [10]: did not reliably change; change in plasma placental growth factor concentration [11]: increased significantly; change in plasma SDF-1 concentration [12]: did not change in a consistent manner; incidence of grade 3 or symptomatic congestive heart failure ([13]; adult patients treated with sunitinib, ref [30]-[32]): 7-15%; cases requiring dose reductions ([13]; adults treated with sunitinib, ref [5], [6], [24], [25]): 11-50%; Cmax [14]: 26.3 ng/mL
